# In patent publication US20210244704A1, “Cabazitaxel in mCRPC Patients Previously Treated with Docetaxel and Who Failed a Prior androgen signaling targeted inhibitor Agent” (SANOFI MATURE IP, priority 2019, published 2021):
# Legend:
# [1] = test system: metastatic castration-resistant prostate cancer (mCRPC) patients previously treated with docetaxel and who failed a prior androgen signaling targeted inhibitor; experiment: Randomized open-label clinical study, cabazitaxel vs abiraterone acetate or enzalutamide: imaging-based PFS, OS, PFS, PSA and tumor response; assay type: in vivo, human; conditions: for Deaths: at cut-off date; for rPFS, HR: cabazitaxel vs abiraterone or enzalutamide
# From the text: Imaging-based progression-free survival (rPFS): defined as the time from randomization until the occurrence of one of the following events: objective tumor progression (Response Evaluation Criteria in Solid Tumors, version 1.1), progression of bone lesions (Prostate Cancer Working Group 2) or death due to any cause.
# Overall survival (OS): defined as the time from the date of randomization to the date of death due to any cause.
# Progression-free survival (PFS) defined as the time from randomization until the occurrence of objective tumor progression (using Response Evaluation Criteria in Solid Tumors, version 1.1), or progression of bone lesions (using Prostate Cancer Working Group 2 criteria), or symptomatic progression (defined as the development of urinary or bowel symptoms related to prostate cancer or requiring a change of anticancer therapy), or pain progression, or death due to any cause.
# PSA response: defined as a decline of serum PSA from baseline of ≥50% with confirmation from a second PSA value measured at least 3 weeks apart. Best PSA response was defined using the Prostate Cancer Working Group criteria 2 definition.
# Tumor response (TR): was measured using Response Evaluation Criteria in Solid Tumors, version 1.1 in patients with measurable disease.
# A clinical study was performed wherein patients received cabazitaxel versus an Androgen Receptor (AR)-targeted agent (abiraterone acetate or enzalutamide) in metastatic castration-resistant prostate cancer (mCRPC) patients previously treated with docetaxel and who failed a prior androgen signaling pathway inhibitor within 12 months.
# For patients in Arm A, cabazitaxel 25 mg/m^2 was administered intravenously over 1 hour every 3 weeks along with oral prednisone 10 mg given daily. Primary prophylactic granulocyte-colony stimulating factor (G-CSF) was required at each cycle for all patients in the cabazitaxel arm
# For patients in Arm B, abiraterone acetate was administered orally at 1000 mg once daily along with oral prednisone 5 mg given twice daily or enzalutamide was administered orally at 160 mg once daily continuously. Abiraterone acetate was administered to patients who had received enzalutamide prior to study entry. Enzalutamide was administered to patients who received prior abiraterone acetate.
# Each patient was treated until imaging-based disease progression, unacceptable toxicity, or patient's refusal of further study treatment. All patients were followed when on study treatment and after completion of study treatment during follow-up period until death, the study cut-off date, or withdrawal of patients' consent whichever came first.
# Eligible patients were randomized to receive either cabazitaxel or an AR pathway inhibitor (abiraterone acetate or enzalutamide; dependent on the use of a previous androgen signaling targeted inhibitor) in a 1:1 ratio. Stratification criteria were Eastern Cooperative Oncology Group performance status, a 5-point scale where higher numbers indicate greater disability (0-1 vs. 2), and time to disease progression (≤6 months vs. >6-12 months) and timing (before vs. after docetaxel) with previous alternative AR pathway inhibitors.
# Cabazitaxel 25 mg/m^2, was administered intravenously over 1 hour every 3 weeks with oral prednisone 10 mg daily. Premedication included an antihistamine, glucocorticoid (dexamethasone 8 mg or equivalent), and histamine 2 receptor antagonist. Antiemetic prophylaxis was administered at physician's discretion. Primary prophylactic granulocyte-colony stimulating factor was required during each cycle of cabazitaxel. Patients received either abiraterone acetate (1000 mg orally once daily and oral prednisone 5 mg twice daily) or enzalutamide (160 mg orally once daily) continuously. A treatment cycle was 3 weeks in both arms. Abiraterone acetate was given to patients who previously received enzalutamide before study entry. Enzalutamide was given to patients who previously received abiraterone acetate. […]
# [2] = test system: symptomatic skeletal events in mCRPC patients; experiment: Same clinical study: symptomatic skeletal events (SSE); assay type: in vivo, human
# From the text: Time to symptomatic skeletal event rate: is defined as the time interval between the date of randomization and the date of the occurrence of the first event defining a symptomatic skeletal event (occurrence of a new symptomatic fracture, use of radiation therapy to relieve bone pain, occurrence of spinal cord compression or cancer-related orthopedic surgical intervention).
# SSEs were defined as either the use of external beam radiation to relieve bone pain, occurrence of new symptomatic pathologic fractures, occurrence of spinal cord compression, or tumor-related orthopedic surgical intervention. SSEs were evaluated at baseline, at each visit, at the end of treatment, and every 12 weeks during follow-up. Standard imaging (bone scans and computed tomography or magnetic resonance imaging of the pelvis, abdomen, and chest) was scheduled at baseline and every 12 weeks until imaging-based disease progression. Pathologic fractures and spinal cord compression were assessed by imaging as needed throughout the study. Time to SSE was defined as time from randomization until first documented SSE.
# Efficacy analysis used all randomized patients. Stratified log-rank tests were used to analyze time-to-event data. The primary analysis compared radiographic progression-free survival between the two treatment groups using a stratified log-rank test. Survival curves were generated using Kaplan-Meier estimates. Hazard ratios and associated 95% confidence intervals [CI] were estimated using a stratified Cox proportional hazards model. Stratified Cochran-Mantel-Haenszel chi-square tests were used to analyze categorical data. Descriptive statistics were used to summarize patient characteristics. The safety population (randomized patients who received at least one dose of study treatment) was used for all safety analyses.
# [3] = cabazitaxel vs androgen signaling targeted inhibitor
smiles,measurement,setting,value
"CO[C@H]1C(=O)[C@]2(C)[C@@H](OC)C[C@H]3OC[C@@]3(OC(C)=O)[C@H]2[C@H](OC(=O)c2ccccc2)[C@]2(O)C[C@H](OC(=O)[C@H](O)[C@@H](NC(=O)OC(C)(C)C)c3ccccc3)C(C)=C1C2(C)C [Cabazitaxel, 4α-acetoxy-2α-benzoyloxy-5β,20-epoxy-1p-hydroxy-7β,10β-dimethoxy-9-oxo-11-taxen-13α-yl (2R,3S)-3-tert-butoxycarbonylamino-2-hydroxy-3-phenylpropionate]",Deaths,[1],54.3%
same,Deaths,[1]; number,70
same,"Radiographic progression-free survival, hazard ratio, post hoc",[1]; cabazitaxel vs abiraterone acetate,0.44
same,"Overall survival, HR in multivariate analysis","[1]; cabazitaxel vs abiraterone/enzalutamide, in presence of low hemoglobin, high baseline NLR, high PSA",0.63
same,"Imaging-based progression-free survival, hazard ratio",[1]; [3],0.54
same,"Overall survival, hazard ratio",[1]; [3],0.64
same,"Progression-free survival, hazard ratio",[1]; [3],0.52
same,"Radiographic progression-free survival, hazard ratio, post hoc",[1]; cabazitaxel vs enzalutamide,0.57
same,Reduction of the risk of death from any cause,"[1]; compared with abiraterone acetate or enzalutamide, all patients",36%
same,Confirmed PSA reduction ≥50% from baseline,[1]; evaluable patients,(35.7) %
same,Confirmed PSA reduction ≥50% from baseline,"[1]; evaluable patients, listed as cabazitaxel",35.7%
same,"Radiographic progression-free survival, treatment effect hazard ratio, multivariate",[1]; fixed model MV-1,0.54
same,"Overall survival, median",[1]; from randomization,13.6 months
same,Median OS from time of 1st LET,"[1]; human, in vivo",36.4 months
same,Median OS from time of 2nd LET,"[1]; human, in vivo",24.2 months
same,Median OS from time of 3rd LET,"[1]; human, in vivo",13.6 months
same,Median OS from time of mCRPC diagnosis,"[1]; human, in vivo",40.9 months
same,Median OS from time of metastatic disease diagnosis,"[1]; human, in vivo",54.7 months
same,"Progression-free survival, median","[1]; human, in vivo",4.4 months
same,Treatment discontinuation for disease progression,"[1]; human, in vivo",43.7%
same,"Imaging-based progression-free survival, median",[1]; intention-to-treat population,8.0 months
same,Overall response rate,[1]; measurable disease,36.5%
same,"Tumor response, complete",[1]; measurable disease,0 n
same,"Tumor response, progressive disease",[1]; measurable disease,15 n
same,Confirmed PSA reduction ≥50% from baseline,"[1]; number of patients, evaluable 115 and 111",41
same,"rPFS, HR",[1]; patients 70 years or older,0.58
same,"rPFS, HR",[1]; patients aged <70 years,0.47
same,"Radiographic progression-free survival, treatment effect hazard ratio, multivariate",[1]; stepwise model MV-2,0.50
same,"Radiographic progression-free survival, treatment effect hazard ratio, multivariate",[1]; stepwise model MV-3,0.52
same,Reduction in the risk of death,"[1]; vs abiraterone or enzalutamide, both in patients ≥70 and <70 years",34%
same,Patients estimated to have a symptomatic skeletal event at 18 months,[2]; 18 months,28.8%
same,Kaplan-Meier probability of not having symptomatic skeletal events,[2]; at 3 months,92.6%
same,Kaplan-Meier probability of not having symptomatic skeletal events,[2]; at 6 months,85.8%
same,Kaplan-Meier probability of not having symptomatic skeletal events,[2]; at 12 months,79.4%
same,Kaplan-Meier probability of not having symptomatic skeletal events,[2]; at 18 months,71.2%
same,"Time to symptomatic skeletal events, hazard ratio",[2]; [3],0.59
same,Surgery to the bone (first SSE),"[2]; human, in vivo",0 n
